In US11370771B2, “Inhibitors of TRPC6” (Boehringer Ingelheim International GmbH, priority 2018, dated 2022):

Tests used:
human TRPC6 [1] = target: T1, human TRPC6 (Homo sapiens, UniProt Q9Y210); assay: High Throughput Screening Assay Method 1 (FLIPR membrane potential dye, OAG activation, HEK293 cells expressing human TRPC6); format: cell-based; conditions: antagonist effect against human TRPC6, 60 μM OAG, read-out: Fluorescence TRPC6 IC50
T1 construct: expressed in transfected cells
T1 sequence (Q9Y210 1-931): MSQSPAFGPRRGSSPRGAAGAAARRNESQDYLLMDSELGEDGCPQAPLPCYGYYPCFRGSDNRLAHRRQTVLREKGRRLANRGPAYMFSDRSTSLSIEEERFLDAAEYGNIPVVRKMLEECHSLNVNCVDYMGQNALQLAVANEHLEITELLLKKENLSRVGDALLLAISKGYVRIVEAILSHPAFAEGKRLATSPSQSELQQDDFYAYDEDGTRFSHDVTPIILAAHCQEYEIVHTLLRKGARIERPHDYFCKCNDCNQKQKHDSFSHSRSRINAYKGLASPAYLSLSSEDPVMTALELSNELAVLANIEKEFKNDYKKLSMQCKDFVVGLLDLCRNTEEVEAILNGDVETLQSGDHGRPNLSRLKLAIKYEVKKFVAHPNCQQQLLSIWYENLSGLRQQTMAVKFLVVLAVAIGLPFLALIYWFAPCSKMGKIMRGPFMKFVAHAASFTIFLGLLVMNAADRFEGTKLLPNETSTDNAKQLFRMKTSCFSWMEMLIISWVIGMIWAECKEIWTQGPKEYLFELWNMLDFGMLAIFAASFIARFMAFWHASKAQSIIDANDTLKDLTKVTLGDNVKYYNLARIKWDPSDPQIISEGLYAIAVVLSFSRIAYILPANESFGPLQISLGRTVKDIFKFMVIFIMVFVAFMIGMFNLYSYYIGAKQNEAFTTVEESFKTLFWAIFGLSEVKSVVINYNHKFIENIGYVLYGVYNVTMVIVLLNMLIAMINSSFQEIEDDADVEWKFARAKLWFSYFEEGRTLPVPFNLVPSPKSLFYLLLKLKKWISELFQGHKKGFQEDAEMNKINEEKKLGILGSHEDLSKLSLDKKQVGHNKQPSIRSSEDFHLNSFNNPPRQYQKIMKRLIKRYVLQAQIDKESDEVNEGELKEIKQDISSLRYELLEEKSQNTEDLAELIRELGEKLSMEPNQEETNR
Text: (§1) This screening assay measures TRPC6 (transient receptor potential cation channel, subfamily C, member 6) ion channel activation via addition either of the commercially available DAG ligand analogue OAG (1-oleoyl-2-acetyl-sn-glycerol) or of the TRPC6 agonist 1-[1-(4,5,6,7,8-pentahydrocyclohepta[2,1-d]thiophen-2-ylcarbonyl)-4-piperidyl]-3-hydrobenzimidazol-2-one (GSK1702934A). The assay utilizes a FLIPR membrane potential (FMP) dye from Molecular Devices, which is a voltage sensitive indicator with a fluorescent quencher. Changes in membrane potential as measured by the fluorescent signal increase during membrane depolarization provide a measurement of channel activity.
The commercially available HEK293 cell line expressing human TRPC6 channel (Axxam/PerkinElmer) is scaled up in bulk and frozen in liquid nitrogen. Frozen cell stocks are thawed and re-suspended in culture media as recommended by the manufacturer supplemented with 0.5 mg/ml of geneticin to promote retention of the TRPC6 construct. Cells are plated at a density of 15,000 cells/well in Greiner 384 well poly-D-lysine coated black clear bottom plates, and incubated for 18-20 h at 37° C. and 5% CO2. To initiate the assay, the growth media is removed using a plate washer and 25 ul of a FMP dye mix is added to each well. The 4× stock FMP dye from the manufacturer is diluted 1× with assay buffer (low calcium Tyrode's assay buffer: 130 mM NaCl, 5 mM KCl, 0.15 mM CaCl2), 1 mM MgCl2, 5 mM NaHCO3, 20 mM HEPES pH 7.4) containing 36 μM BAPTA/AM. The cells are incubated at room temperature (19-22° C.) for 30 minutes. For the screening assay, 5 uL of diluted compound stock is added to each well and incubated for 15 minutes at room temperature (19-22° C.). Using the Hamamatsu FDSS6000 or FDSS7000, 10 uL of the synthetic, membrane permeant analog of 1,2 diacylglycerol (DAG), 1-oleoyl-2-acetoyl-n-glycerol (OAG), is added and fluorescent readings taken every second from 50 seconds to 3 minutes. […] Controls and blanks consisted of HEK293 TRPC6 cells that are exposed to OAG. A reference inhibitor added along with the test compound is included as part of the blanks. This inhibitor suppresses the TRPC6 channel activation. These controls set the screening window, and “hits” are defined as those compounds inhibiting the membrane depolarization caused by OAG by at least 50%. IC50 values are determined for compounds that meet these criteria by titrating compound stock at a final starting concentration of 30 μM using a 3-fold serial dilution for 11 points. Curves are generated by fitting each data set to a four-parameter logistic equation using nonlinear regression.

human TRPC6 [2] = target: T1, human TRPC6; assay: High Throughput Screening Assay Method 2 (membrane potential dye, GSK1702934A agonist, HEK293 stably transfected with human TRPC6); format: cell-based; conditions: antagonist effect against human TRPC6, 3 μM GSK1702934A agonist, HEK293 TRPC6 cells, read-out: Fluorescence TRPC6 IC50
Text: as §1
The commercially available HEK293 cell line (ATCC) was stably transfected with an human TRPC6 gene construct in pcDNA3.1(+) (Thermo Fisher) and screened to find a clone with TRPC6 expression. These cells were maintained in growth medium recommended by the manufacturer supplemented with 400 μg/ml G418 to promote retention of the TRPC6 construct. After growing to near confluency, cells were plated at a density of 15,000 cells/well in clear bottom black walled poly-D-Lys coated 384-well tissue culture treated plates (TwinHelix, cat. #GR 4332 CPL) in growth medium lacking G418, and allowed to grow for 24 hrs. Growth media was removed from the wells and cells were then loaded with 20 μL of 0.5× Membrane Potential sensitive dye (Molecular Devices) in the presence of 30 μM BAPTA-AM (Invitrogen) in Tyrode's assay buffer (130 mM NaCl, 5 mM KCl, 0.15 mM CaCl2), 1 mM MgCl2, 5 mM NaHCO3, 20 mM HEPES, pH 7.4) and incubated for 60 min at room temperature in the dark. Ten μL/well of test compound or controls was added to the wells with the FLIPR^TETRA (Molecular Devices) and incubated for 5 minutes. Compounds were tested at eight concentrations (10, 3.16, 1, 0.316, 0.1, 0.0316, 0.01 and 0.00316 μM diluted in Tyrode's assay buffer and 0.5% DMSO, final concentration) with inter-plate duplicate data points. Subsequently, 15 μL/well of GSK1702934A agonist in Tyrode's assay buffer was added to a final concentration of 3 μM by the FLIPR^TETRA and the signal of the emitted fluorescence (Excitation: 510-545 nm, Emission: 565-625 nm) was recorded for 3 minutes. Negative and positive controls were included on each plate. Negative controls wells consisted of cells exposed to Tyrode's assay buffer and agonist solution, but no test compound. Positive control consisted of cells exposed to […] Verapamil hydrochloride (Tocris, cat. #0654) diluted in Tyrode's assay buffer and 0.5% DMSO final concentration and agonist solution. Inhibition was expressed as a percentage of control, with 0% activity being a result in which the response value of the test wells reached a level identical to the wells containing Verapamil plus GSK1702934A and 100% activity being a result in which the response value of the test wells reached a level identical to the wells containing GSK1702934A alone. Genedata Screener® 14.0.6 was used for data analysis to fit IC50 curves.

SMILES | IC50 (human TRPC6 [1]) [nM] | IC50 (human TRPC6 [2]) [nM]
CC(C)c1ccc(Oc2ccc(C(=O)N3CCC(c4ccc(N)nn4)CC3)cc2)cc1 [Compound 17, 6-(1-{4-[4-(propan-2-yl)phenoxy]benzoyl}piperidin-4-yl)pyridazin-3-amine] | 2190 | –
CN(C)C(=O)c1ccc(Oc2ccc(C(=O)N3CCN(c4ccc(N)nn4)CC3)cc2)cc1 [Compound 25, 4-{4-[4-(6-aminopyridazin-3-yl)piperazine-1-carbonyl]phenoxy}-N,N-dimethylbenzamide] | 8970 | –
Nc1ccc(N2CCN(C(=O)c3ccc(Oc4ccc(C(F)(F)F)c(F)c4)cc3)CC2)nn1 [Compound 22, 6-(4-{4-[3-fluoro-4-(trifluoromethyl)phenoxy]benzoyl}piperazin-1-yl)pyridazin-3-amine] | 8880 | –
Nc1ccc(N2CCN(C(=O)c3ccc(Oc4ccc(C(F)(F)F)cc4)cc3)CC2)cn1 [Compound 19, 5-(4-{4-[4-(trifluoromethyl)phenoxy]benzoyl}piperazin-1-yl)pyridin-2-amine] | 1330 | –
CC(C)c1ccc(Oc2ccc(C(=O)N3CCN(c4ccc(N)nn4)CC3)cc2)cc1 [Compound 18, 6-(4-{4-[4-(propan-2-yl)phenoxy]benzoyl}piperazin-1-yl)pyridazin-3-amine] | 1310 | –
Nc1ccc(N2CCN(C(=O)c3ccc(Oc4ccc(Cl)cc4)cc3)CC2)nn1 [Compound 11, 6-{4-[4-(4-chlorophenoxy)benzoyl]piperazin-1-yl}pyridazin-3-amine] | 1040 | –
CC(=O)c1ccc(Oc2ccc(C(=O)N3CCC(c4ccc(N)nn4)CC3)cc2)cc1 [Compound 16, 1-(4-{4-[4-(6-aminopyridazin-3-yl)piperidine-1-carbonyl]phenoxy}phenyl)ethan-1-one] | 2070 | –
Nc1ccc(N2CCN(C(=O)c3ccc(Oc4ccc5c(c4)OCO5)cc3)CC2)nn1 [Compound 8, 6-{4-[4-(2H-1,3-benzodioxol-5-yloxy)benzoyl]piperazin-1-yl}pyridazin-3-amine] | 1230 | –
Nc1ccc(N2CCN(C(=O)c3ccc(Oc4ccc(C(F)(F)F)cc4)cc3)CC2)nn1 [Compound 26, 6-(4-{4-[4-(trifluoromethyl)phenoxy]benzoyl}piperazin-1-yl)pyridazin-3-amine] | 3750 | –
COc1cc(N)ncc1N1CCN(C(=O)c2cc(F)c(Oc3ccc(F)cc3)cc2F)C2(CC2)C1 [Compound 28, 5-{4-[2,5-Difluoro-4-(4-fluorophenoxy)benzoyl]-4,7-diazaspiro[2.5]octan-7-yl}-4-methoxypyridin-2-amine] | – | 135
Nc1ccc(C2CCN(C(=O)c3cc(F)c(Oc4ccc(F)cc4)cc3F)CC2)nn1 [Compound 45, 6-{1-[2,5-Difluoro-4-(4-fluorophenoxy)benzoyl]piperidin-4-yl}pyridazin-3-amine] | – | 61

Results, then the compound that gave them:

IC50 (human TRPC6 [1]) [nM] | IC50 (human TRPC6 [2]) [nM] | SMILES
400 | – | Nc1ccc(C2CCN(C(=O)c3ccc(Oc4ccc(C5CC5)cc4)cc3)CC2)nn1 [Compound 12, 6-{1-[4-(4-cyclopropylphenoxy)benzoyl]piperidin-4-yl}pyridazin-3-amine]
326 | – | Nc1ccc(C2CCN(C(=O)c3ccc(Oc4ccccc4)cc3)CC2)cn1 [Compound 1, 5-[1-(4-phenoxybenzoyl)piperidin-4-yl]pyridin-2-amine]
511 | – | COc1ccc(Oc2ccc(C(=O)N3CCC(c4ccc(N)nn4)CC3)cc2)cc1 [Compound 9, 6-{1-[4-(4-methoxyphenoxy)benzoyl]piperidin-4-yl}pyridazin-3-amine]
39 | – | Nc1ccc(C2CCN(C(=O)c3ccc(Oc4ccccc4)cc3)CC2)nn1 [Compound 3, 6-[1-(4-phenoxybenzoyl)piperidin-4-yl]pyridazin-3-amine]
351 | – | Nc1ccc(C2CCN(C(=O)c3ccc(Oc4ccc(OC(F)(F)F)cc4)cc3)CC2)nn1 [Compound 4, 6-(1-{4-[4-(trifluoromethoxy)phenoxy]benzoyl}piperidin-4-yl)pyridazin-3-amine]
191 | – | Nc1ccc(N2CCN(C(=O)c3ccc(Oc4ccc(OC(F)(F)F)cc4)cc3)CC2)nn1 [Compound 21, 6-(4-{4-[4-(trifluoromethoxy)phenoxy]benzoyl}piperazin-1-yl)pyridazin-3-amine]
266 | – | Nc1ccc(C2CCN(C(=O)c3ccc(Oc4ccc(Cl)cc4)cc3)CC2)nn1 [Compound 13, 6-{1-[4-(4-chlorophenoxy)benzoyl]piperidin-4-yl}pyridazin-3-amine]
372 | – | Cc1ccc(Oc2ccc(C(=O)N3CCC(c4ccc(N)nn4)CC3)cc2)cc1 [Compound 5, 6-{1-[4-(4-methylphenoxy)benzoyl]piperidin-4-yl}pyridazin-3-amine]
75 | – | Nc1ccc(C2CCN(C(=O)c3ccc(Oc4ccc(F)cc4)cc3)CC2)nn1 [Compound 10, 6-{1-[4-(4-fluorophenoxy)benzoyl]piperidin-4-yl}pyridazin-3-amine]
199 | – | Nc1ccc(N2CCN(C(=O)c3ccc(Oc4ccccc4)cc3)CC2)nn1 [Compound 24, 6-[4-(4-phenoxybenzoyl)piperazin-1-yl]pyridazin-3-amine]
540 | – | Nc1ccc(N2CCN(C(=O)c3ccc(Oc4ccc(C5CC5)cc4)cc3)CC2)nn1 [Compound 6, 6-{4-[4-(4-cyclopropylphenoxy)benzoyl]piperazin-1-yl}pyridazin-3-amine]
